Experimental data: US12031897B2, “Target-locking single-molecule nanoscopy” (Memorial Sloan Kettering Cancer Center, priority 2019, dated 2024)
“Also recorded” adds a separate entry of the source.

Assays:
Type in all cases: cell-based, mouse
[1] = system: Pou5f1 transcription site (MCP-mNeonGreen nascent RNA); assay: MCP-mNeonGreen nascent transcription at the endogenous Pou5f1 locus in mESCs (live-cell imaging); settings: for MCP-mNeonGreen exponential decay time: Pou5f1, mESCs, 10 μM flavopiridol, 10 μM triptolide or 1 μM JQ1, mean±S.D.
Procedure: All the mESCs were cultured and maintained in +2i media with appropriate selection drugs on 0.1% gelatin-coated dishes, at 37° C. in a humidified 5% CO2 incubator. +2i media contain D-MEM (Thermo Fisher Scientific 10313021), 15% fetal bovine serum (Gemini Bio 100-500), 0.1 mM β-mercaptoethanol (Thermo Fisher Scientific 21985023), 2 mM L-alanyl-L-glutamine (Thermo Fisher Scientific 35050079), 1×MEM nonessential amino acids (Thermo Fisher Scientific 11140076), 1000 U/mL LIF (Millipore ESG1107), […] (Millipore 361559) and 1 μM PD0325901 (Axon Medichem 1408). OMG and NMG SNAP-Rpb1 cells were cultured with +2i media plus 3 μg/ml α-amanitin.
(§1) Before imaging, cells were seeded onto 8-chamber coverglass (LabTek, 155411) coated with 5 μg/ml laminin (BioLamina LN511), in −2i media (OMG) or +2i media (NMG) and appropriate drugs. For SiR staining, cells were labeled with media containing 0.3 μM SiR-BG for 10 mins, at 37° C., followed by three washes with new media.
Wide-Field Cell Imaging Experiments. Live cell imaging experiments (tdPCP-EGFP and MCP-mNeonGreen tracking). For time-lapse imaging, a z-stack of 11 frames at 1 frame/second was acquired, by stepping the sample along the z-axis using the nanopositioning stage (250 nm steps). The CCD data were analyzed using IDL 6.4 (ITTVIS). Maximum projection images were calculated for each stack, and the resulting 11 sec/frame movie was used to track the intensities of individual tdPCP-EGFP-tagged transcription sites. A particle tracking routine (Crocker and Grier, 1996) was used for finding the positions of the transcription site in each frame and linking them into a 2D trajectory. The intensity trace of tdPCP-EGFP at the transcription site was corrected for photo-bleaching using the time trace of tdPCP-EGFP in a nearby nuclear region. The auto-correlation function was calculated (for the tdPCP-EGFP fluctuation analysis), or the data were imported in Origin 8.5.0 (OriginLab) and the trace fitted to a single-exponential decay (for the transcription inhibition experiments).

[2] = system: Pol II (SiR-Rpb1) at the Pou5f1 transcription site; assay: SiR-Rpb1 (Pol II) dynamics at Pou5f1 after drug addition (target-locking); settings: for Rpb1 exponential decay time from fits: Pou5f1, 10 μM flavopiridol, 10 μM triptolide or 1 μM JQ1; for Pol II signal at Pou5f1 upon transcription inhibition: paralleled by nascent RNA loss
Procedure: The images obtained from the Ixon3 897 detector (e.g., detection system 150) were analyzed on the fly by non-linear least-squares fitting of a 21×21 pixel ROI to a 2D Gaussian peak function implemented in LabVIEW. Axial localization was achieved either though the degree of defocus or based on astigmatism. The coordinates returned by the 2D Gaussian peak fit were passed onto a PID controller that calculated the desired position correction that was commanded to the nanopositioning stage controller. The LabVIEW application ran at sustained speeds of up to 30 frames/second. Before imaging, cells were seeded onto 8-chamber coverglass (LabTek, 155411) coated with 5 μg/ml laminin (BioLamina LN511), in −2i media (OMG) or +2i media (NMG) and appropriate drugs. For SiR staining, cells were labeled with media containing 0.3 μM SiR-BG for 10 mins, at 37° C., followed by three washes with new media. OMG-1 or NMG mESCs (1×106) were transfected with 10 μg PB007-EF1α-Flag-SNAP-Rpb1 (αAmR) and 1 μg pCMV-hyPBase vectors using Lipofectamine 2000 (Invitrogen 11668019). Cells were subjected to 3 mg/ml α-amanitin 2 days post-transfection. Individual α-amanitin-resistant colonies were picked after ˜2 weeks, expanded, labeled with SiR-BG and imaged.

[3] = system: Cdk9 foci at the Pou5f1 locus; assay: Cdk9 cluster signal at Pou5f1 upon inhibition (live-cell confocal/STED scans); settings: for Cdk9 signal at Pou5f1 upon inhibition: 1 μM JQ1 (within 1 min) or 10 μM Flavopiridol
Description: If rapid Pou5f1 shut-down reflects significant Cdk9 portion being recruited through Brd4-acetylated histone recognition, both Brd4 and Cdk9 clustering would dissipate upon JQ1 inhibition. […] Cdk9/Med22 focal accumulation appears to be stabilized through highly-specific molecular recognition-multiple Brd4 molecules binding to multiple acetylated targets throughout the heavily modified Pou5f1 enhancer region—rather than possibly less-selective physicochemical forces, e.g. driven by low-complexity protein domains and RNA.
For real-time confocal and STED imaging, example implementations may program the wave generator to scan 2 μm×2 μm or 1 μm×1 μm xy areas in 0.8 sec or 0.2 sec respectively. 3D scanning was performed (via, e.g., detection system 150) by acquiring 5 xy scans while moving the stage by 0.5 μm in z between scans. TTL pulses corresponding to single-photon events from the APDs, together with the trigger pulses from the wave generator were detected using a field-programmable gate array (FPGA) data acquisition system (National Instruments, PCIe-7852R).
as §1
To generate OMG SNAP-Cdk9 targeted cells, OMG-1 mESCs (1×106) were transfected with 10 μg SNAP-Cdk9 donor vector and 0.6 μg espCas9-gRNA-Cdk9 vector. 10 days after transfection, the cells were trypsinized, labeled with SiR-BG and subjected to FACS, generating a first-round SiR-positive pool. This pool was then expanded, stained with SiR-BG and subjected to second FACS round and individual clones were picked and expanded.

[4] = system: Sox2 foci at the Pou5f1 locus; assay: Sox2 cluster signal at Pou5f1 upon inhibition (live-cell confocal/STED scans); settings: 1 μM JQ1 or 10 μM Flavopiridol
Description: Contrary to Brd4, Med22 and Cdk9, Sox2 clustering persists through transcription inhibition by either JQ1 or FVP (FIG. 8D). The differential sensitivities between factors and modes of transcription inhibition unveil a hierarchy of molecular transactions that control Pou5f1 transcription: Sox2 binding occurs upstream of Cdk9/Med22/Brd4 recruitment and accumulation of all of 4 regulatory factors occurs upstream of Pol II release into productive elongation. […] For real-time confocal and STED imaging, example implementations may program the wave generator to scan 2 μm×2 μm or 1 μm×1 μm xy areas in 0.8 sec or 0.2 sec respectively. 3D scanning was performed (via, e.g., detection system 150) by acquiring 5 xy scans while moving the stage by 0.5 μm in z between scans. TTL pulses corresponding to single-photon events from the APDs, together with the trigger pulses from the wave generator were detected using a field-programmable gate array (FPGA) data acquisition system (National Instruments, PCIe-7852R). Before imaging, cells were seeded onto 8-chamber coverglass (LabTek, 155411) coated with 5 μg/ml laminin (BioLamina LN511), in -2i media (OMG) or +2i media (NMG) and appropriate drugs. For SiR staining, cells were labeled with media containing 0.3 μM SiR-BG for 10 mins, at 37° C., followed by three washes with new media. Targeted integration of SNAP-tag in the endogenous Sox2, Cdk9, Brd4 and Med22 genes. To generate OMG or NMG SNAP-Sox2 targeted cells, OMG-1 or NMG mESCs (1×106) were transfected with 10 μg SNAP-Sox2 donor vector and 0.6 μg […] vector. 10 days after transfection, the cells were trypsinized, labeled with 0.3 μM SiR-BG for 10 mins, rinsed three times with new media, followed by immediate fluorescence-activated cell sorting (FACS). All the SiR-positive cells were collected, expanded for 2 weeks, trypsinized, labeled with SiR-BG and sorted again. Almost 100% SNAP positive pools were obtained from the second round of sorting and individual clones were picked and expanded. Homozygous clones (dubbed “OMG SNAP-Sox2 clone 8” and NMG SNAP-Sox2 clone 3'' respectively) with both Sox2 alleles correctly targeted with SNAP-tag integrations and that show SiR nuclear staining were selected for all further experiments.

[5] = system: Med22 foci at the Pou5f1 locus; assay: Med22 cluster signal at Pou5f1 upon inhibition (live-cell confocal/STED scans); settings: 1 μM JQ1 or 10 μM Flavopiridol

Row | SMILES | Hill equation n, relative MCP signal vs. [JQ1] ([1]; Pou5f1) | MCP-mNeonGreen exponential decay time [1] | response of individual Pou5f1 transcription sites at intermediate inhibitor concentration ([1]; intermediate [A-485] or [JQ1]) | Pou5f1 transcription activity ([1]; upon JQ1 (FIG. 7A, 1 μM)) | Rpb1 exponential decay time from fits [2] | Cdk9 signal at Pou5f1 upon inhibition [3] | Hill equation n, relative Cdk9 signal vs. [JQ1] ([3]; Pou5f1) | Sox2 clustering at Pou5f1 upon transcription inhibition [4] | Med22 signal at Pou5f1 upon inhibition [5] | Pol II signal at Pou5f1 upon transcription inhibition [2]
1 | Cc1sc2c(c1C)C(c1ccc(Cl)cc1)=N[C@@H](CC(=O)OC(C)(C)C)c1nnc(C)n1-2 [JQ1] | 1.1±0.7 | 300 ± 136 s | decays to a new finite plateau; also recorded: attenuated output, without completely shutting down | abruptly abolishes | 310 ± 123 s | drop sharply; also recorded: drop close to noise-floor | 0.8±0.1 | persists | drop close to noise-floor | –
2 | CN1CC[C@H](c2c(O)cc(O)c3c(=O)cc(-c4ccccc4Cl)oc23)[C@H](O)C1 [flavopiridol] | – | 378 ± 193 s | – | – | 347 ± 104 s | not lost | – | persists | not lost | gradual Pol II signal loss
3 | CC(C)[C@]12O[C@H]1[C@@H]1O[C@]13[C@]1(O[C@H]1C[C@H]1C4=C(CC[C@@]13C)C(=O)OC4)[C@@H]2O [triptolide] | – | 378 ± 115 s | – | – | 565 ± 109 s | – | – | – | – | gradual Pol II signal loss
